Columns and labels:
[1] = test system: CYP24A1 gene expression; assay: RT-PCR analysis of CYP24A1 expression in HaCaT cells; format: cell-based; conditions: 100 nM, 24 h treatment; for fold induction at 0.1 µM: Homo sapiens, read-out: relative mRNA level for CYP24A1 versus vehicle control
Protocol: Figure 7 20S(OH)D3 analogs upregulate the expression of CYP24A1 encoding the vitamin D catabolic enzyme, CYP24A1, with varying efficiencies. […] The mRNA was isolated and the RT-PCR was performed using specific primers for the CYP24A1 gene (see Methods). Data are presented as mean ± SE (n = 3). *p < 0.05, **p < 0.01 and ***p < 0.001 compared with the control.
HaCaT cells were purchased from Thermo Fisher Scientific (Waltham, MA, USA) and were cultured as for the VDRE reporter assay. The RNA from HaCaT keratinocytes treated with secosteroids or from DMSO controls was isolated using the Absolutely RNA Miniprep Kit (Stratagene, La Jolla, CA, USA). Reverse transcription (100 ng RNA/reaction) was performed with the Transcriptor First Strand cDNA Synthesis Kit (Roche Inc., Mannheim, Germany). Real-time PCR was performed using cDNA diluted 10-fold in sterile water and a SYBR Green PCR Master Mix. The primers for both forward and reverse strands for CYP24A1 were designed based on the mouse and rat sequences using Primer Quest software ([…], San Jose, CA, USA). Reactions (in triplicate) were performed at 50 °C for 2 min, 95 °C for 10 min and then 40 cycles of 95 °C for 15 s, 60 °C for 30 s and 72 °C for 30 s. Data were collected and analyzed on a Roche Light Cycler 480. The amount of the final amplified product for each gene was compared and normalized to the amount of β-actin product as a housekeeping gene using a comparative Ct method.

[2] = target: T1, VDR (Homo sapiens, UniProt P11473); assay: VDRE-luciferase reporter assay in HaCaT cells
T1 sequence (P11473 1-427): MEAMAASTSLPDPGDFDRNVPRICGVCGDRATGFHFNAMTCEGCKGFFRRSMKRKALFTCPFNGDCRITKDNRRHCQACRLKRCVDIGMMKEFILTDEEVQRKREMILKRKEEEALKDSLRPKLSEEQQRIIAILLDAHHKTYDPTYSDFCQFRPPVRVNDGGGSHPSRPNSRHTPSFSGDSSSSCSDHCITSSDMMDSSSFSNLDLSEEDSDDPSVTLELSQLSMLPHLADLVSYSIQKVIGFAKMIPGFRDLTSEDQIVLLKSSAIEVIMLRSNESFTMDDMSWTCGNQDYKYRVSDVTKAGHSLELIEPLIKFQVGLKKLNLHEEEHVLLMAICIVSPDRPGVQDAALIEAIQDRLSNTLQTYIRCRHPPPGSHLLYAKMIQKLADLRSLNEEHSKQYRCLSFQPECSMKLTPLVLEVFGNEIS

[3] = target: T1, VDR; assay: VDRE-luciferase reporter assay in Caco-2 cells
[4] = target: T1, VDR; assay: VDRE-luciferase reporter assay in Jurkat cells
[5] = test system: IFNγ production; assay: IFNγ inhibition assay in anti-CD3 activated splenocytes; conditions: for activity at 0.1 µM: Mus musculus, Splenocyte, 72 h, read-out: IFNγ (ratio ± SD)
[6] = target: T2, rat CYP24A1 (Rattus norvegicus, UniProt Q09128); assay: Kinetics of metabolism of analogs in phospholipid vesicles by rat CYP24A1; format: in vitro ADME; conditions: for Km: rat CYP24A1 0.14 µM, phospholipid vesicles, 1 min incubation, ± SE from curve fit
T2 construct: made in house; host or cells: E. coli
T2 sequence (Q09128 36-514): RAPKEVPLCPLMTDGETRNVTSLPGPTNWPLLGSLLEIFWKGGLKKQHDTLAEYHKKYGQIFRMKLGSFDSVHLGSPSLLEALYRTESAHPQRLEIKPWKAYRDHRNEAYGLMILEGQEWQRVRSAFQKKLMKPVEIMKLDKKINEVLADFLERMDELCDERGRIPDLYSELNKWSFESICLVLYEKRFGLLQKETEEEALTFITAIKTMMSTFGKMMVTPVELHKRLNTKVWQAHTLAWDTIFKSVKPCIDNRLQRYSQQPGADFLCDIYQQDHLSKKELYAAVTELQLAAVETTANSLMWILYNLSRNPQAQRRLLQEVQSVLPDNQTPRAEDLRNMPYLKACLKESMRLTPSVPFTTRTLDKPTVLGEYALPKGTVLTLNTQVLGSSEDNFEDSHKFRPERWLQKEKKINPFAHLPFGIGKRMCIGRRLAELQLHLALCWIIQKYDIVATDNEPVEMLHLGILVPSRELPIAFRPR
Protocol: An incubation time of 1 min was chosen to obtain the initial rate based on the time courses (Fig. 6) and previous studies[28],[29].
To test metabolism of each analog, they were incorporated into phospholipid vesicles made from dioleoyl phosphatidylcholine and cardiolipin by sonication, as before[24],[28]. […] Samples from incubations with CYP24A1 were extracted with dichloromethane and analysed by HPLC using a 25 cm Grace Alltima C18 column, as before[27],[28]. […] For the more polar 33, the acetonitrile gradient was 30% to 100% acetonitrile for 30 min then 100% acetonitrile for 20 min, at 0.5 mL/min.

[7] = target: T3, mouse CYP27B1 (Mus musculus, UniProt O35084); assay: Metabolism (1α-hydroxylation) of analogs by mouse CYP27B1; format: in vitro ADME; conditions: 0.018 mol/mol phospholipid, 0.8 µM mouse CYP27B1, 20 min, 37 °C
T3 construct: made in house; host or cells: E. coli
T3 sequence (O35084 1-507): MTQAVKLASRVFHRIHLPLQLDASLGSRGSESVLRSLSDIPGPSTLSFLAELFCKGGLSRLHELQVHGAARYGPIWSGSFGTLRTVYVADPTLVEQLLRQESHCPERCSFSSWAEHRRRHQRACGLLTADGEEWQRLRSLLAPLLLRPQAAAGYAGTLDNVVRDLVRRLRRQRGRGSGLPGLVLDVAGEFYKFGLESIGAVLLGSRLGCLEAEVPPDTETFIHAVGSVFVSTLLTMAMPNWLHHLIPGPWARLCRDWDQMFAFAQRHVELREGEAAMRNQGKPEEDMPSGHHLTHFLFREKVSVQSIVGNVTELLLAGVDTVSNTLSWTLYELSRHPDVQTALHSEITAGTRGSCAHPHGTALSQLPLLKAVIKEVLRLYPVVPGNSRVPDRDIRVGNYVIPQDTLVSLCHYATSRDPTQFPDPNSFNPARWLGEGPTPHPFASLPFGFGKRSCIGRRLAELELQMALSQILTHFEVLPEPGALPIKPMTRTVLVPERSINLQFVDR
Protocol: In order to make the 1α-OH derivatives of the 20S(OH)D3 analogs enzymatically, and to assess their likely capacity to be 1α-hydroxylated in vivo, the ability of mouse CYP27B1 to hydroxylate these metabolites was examined. 25(OH)D3, the major natural substrate for CYP27B1[2],[30], was included for comparison. The 20S(OH)D3 analogs were incorporated into phospholipid vesicles and incubated with CYP27B1, then the extent of their metabolism was determined by HPLC (Table 2). All analogs tested except 33 were metabolized by CYP27B1. In each case only a single metabolite was produced, assumed to be the 1α-OH derivative based on the known high specificity of the enzyme for the 1α-position[24],[30],[31]. […] Metabolism of 4 was almost twice that of 20S(OH)D3 and metabolism of 23 almost three fold. Thus, the modifications to C24 and/or C25 seen in 13, 4 and 23 enhanced their ability to be metabolized by CYP27B1. […] In contrast, the introduction of an amide linkage into the side chain, as in 33, prevented its hydroxylation by CYP27B1.
Rat CYP24A1, mouse CYP27B1 and adrenodoxin and human adrenodoxin reductase were expressed in E. coli and purified as described before[28],[30],[35]. To test metabolism of each analog, they were incorporated into phospholipid vesicles made from dioleoyl phosphatidylcholine and cardiolipin by sonication, as before[24],[28]. The substrates in vesicles (510 µM phospholipid) were incubated at 37 °C with either CYP24A1 (0.14 µM) or CYP27B1 (0.8 µM) in a reconstituted system containing adrenodoxin (15 µM) and adrenodoxin reductase (0.4 µM). Samples from incubations with CYP24A1 were extracted with dichloromethane and analysed by HPLC using a 25 cm Grace Alltima C18 column, as before[27],[28]. Products (except 33) were separated using an acetonitrile on water gradient (45% to 100% for 20 min then 100% acetonitrile for 40 min at a flow rate of 0.5 mL/min). For the more polar 33, the acetonitrile gradient was 30% to 100% acetonitrile for 30 min then 100% acetonitrile for 20 min, at 0.5 mL/min. Products from incubations with CYP27B1 were similarly extracted with dichloromethane and analyzed by reverse phase HPLC using a 15 cm Grace Smart C18 column and an acetonitrile in water gradient (10 min 45% to 100% acetonitrile then 20 min at 100% acetonitrile, at 0.5 mL/min).

[8] = low dose of 0.1 µg/kg; cited from earlier work

Structure (SMILES) | fold induction at 0.1 µM [1] | EC50 [2] | EC50 [3] | EC50 [4] | activity at 0.1 µM [5] | Km [6] | Product (% total secosteroids) [7] | further results
C=C1/C(=C\C=C2/CCC[C@]3(C)[C@@H]([C@H](C)OCCC(C)(C)O)CC[C@@H]23)C[C@@H](O)C[C@@H]1O [22-Oxa, reference compound] | – | – | – | – | – | – | – | relative mRNA level for CYP24A1 versus vehicle control [1]: 77.5 fold; EC50 ([2]; read-out: VDRE stimulation (EC50 ± SD, nM) HaCaT, HaCaT cells, 24 h, NS: no significance): 40.1 ± 1.5 nM; EC50 ([3]; read-out: VDRE stimulation (EC50 ± SD, nM) Caco-2, Caco-2 cells, 24 h, NS: no significance): 42.5 ± 1.6 nM; EC50 ([4]; read-out: VDRE stimulation (EC50 ± SD, nM) Jurkat, Jurkat cells, 24 h, NS: no significance): 2.9 ± 0.3 nM; decrease of IFNγ production level ([5]; 100 nM): 51%; IFNγ (ratio ± SD) ([5]; ratio to control (1.000), 100 nM, mouse splenocytes, anti-CD3, 72 h): 0.487 ± 0.017
C=C1/C(=C\C=C2/CCC[C@@]3(C)[C@H]2CC[C@@H]3[C@@](C)(O)CCC=C(C)C)C[C@@H](O)C[C@@H]1O [compound 5] | 149 | 198 ± 8.1 nM | 182 ± 6.1 nM | 237 ± 5.5 nM | 38.1 ± 1.7% | – | – | –
C=C1CC[C@H](O)C/C1=C/C=C1\CCC[C@@]2(C)[C@H]1CC[C@@H]2[C@@](C)(O)CCC=C(C)C [compound 4] | 32.4 | 460 ± 36.5 nM | 580 ± 19.2 nM | 439 ± 25.7 nM | 83.2 ± 2.3% | 2.0 ± 1.7 mmol/mol PL | 40.6 % total secosteroids | kcat, fold lower than for 1,25(OH)2D3 ([6]; rat CYP24A1): approximately 4 fold
C=C1CC[C@H](O)C/C1=C/C=C1\CCC[C@]2(C)[C@@H]([C@H](C)CCCC(C)(C)O)CC[C@@H]12 [25(OH)D3, 25-hydroxyvitamin D3, reference compound] | – | – | – | – | – | – | 86.0 % total secosteroids | –
C=C1CC[C@H](O)C/C1=C/C=C1\CCC[C@]2(C)[C@@H](C(C)(O)CC(=O)NC(C)C)CC[C@@H]12 (stereo partly shown) [compound 33] | 1.2 | – | – | – | 62.8 ± 1.4% | 15.4 ± 1.7 mmol/mol PL | 0 % total secosteroids | catalytic efficiency, fold lower than for 13 ([6]; rat CYP24A1): 13 fold; kcat, fold lower than for 1,25(OH)2D3 ([6]; rat CYP24A1): approximately 4 fold
C=C1/C(=C\C=C2/CCC[C@@]3(C)[C@H]2CC[C@@H]3[C@@](C)(O)CCOC(C)C)C[C@@H](O)C[C@@H]1O [compound 14] | 2 | 226 ± 3.5 nM | 188 ± 1.9 nM | 248 ± 5 nM | 62.8 ± 0.8% | – | – | –
C=C1CC[C@H](O)C/C1=C/C=C1\CCC[C@@]2(C)[C@H]1CC[C@@H]2[C@@](C)(O)CCC(F)(F)C(C)C [compound 23] | 0.9 | – | – | – | 69.8 ± 3.1% | 11.6 ± 3.1 mmol/mol PL | 57.1 % total secosteroids | Km, fold lower than that for 20S(OH)D3 ([6]; rat CYP24A1): 3–4 fold
C=C1/C(=C\C=C2/CCC[C@]3(C)[C@@H]([C@H](C)CCCC(C)(C)O)CC[C@@H]23)C[C@@H](O)C[C@@H]1O [1,25(OH)2D3, 1α,25-dihydroxyvitamin D3, reference compound] | – | – | – | – | – | – | – | calcemic effect [8]: substantial calcemic effect; decrease of IFNγ production level ([5]; 100 nM): 60%
C=C1/C(=C\C=C2/CCC[C@@]3(C)[C@H]2CC[C@@H]3[C@@](C)(O)CCC(F)(F)C(C)C)C[C@@H](O)C[C@@H]1O [compound 24] | 2.3 | 254 ± 7.9 nM | 236 ± 4.1 nM | 305 ± 4.5 nM | 56 ± 1% | – | – | –

— publication PMC5784132, “Investigation of 20S-hydroxyvitamin D3 analogs and their 1α-OH derivatives as potent vitamin D receptor agonists with anti-inflammatory activities” (Scientific Reports, 2018)
